Values of other authors in PMC10386414 (Molecules, 2023).
pEC50: −log10 of the molar value.

Legend:
[1] = test system: MOR; set-up: method as in PMID 17625813; conditions: receptor binding assay
[2] = earlier work, reference not given
[3] = set-up: method as in PMID 37381112; conditions: depending on the animal species used and the pain stimulus
[4] = set-up: method as in PMID 37381112; conditions: in vivo
[5] = test system: MOR; set-up: method as in PMID 33479684; conditions: cAMP assay, acted as a partial agonist

SMILES | MOR affinity [1] | potency in vivo relative to morphine [2] | antinociceptive activity [3] | locomotor effects [4] | %Emax (efficacy) [5] | pEC50 ([5]; read-out: EC50 (potency))
Oc1cccc(C23CCCC(C2O)N(CCc2ccccc2)CC3)c1 [1R,5R,9S-OH compound] | sub-nanomolar | about 500 times |  |  |  | 
CCC[C@H]1[C@@H]2CCC[C@@]1(c1cccc(O)c1)CCN2CCc1ccccc1 [compound 16] |  |  | some antinociceptive activity | unlike morphine in its locomotor effects | 45% | 8.85
